Test results from patent US9963432B2, “Beta-amino-isoquinolinyl amide compounds” (Aerie Pharmaceuticals, Inc., priority 2016, dated 2018).
Where two headings read alike, the source gives them in different places.

Key:
ROCK2 = ROCK2 (Homo sapiens, UniProt O75116); assay: ROCK Kinase Assay (Kinase-Glo luminescent); type: biochemical
Description: All compounds were initially prepared as 10 mM stocks in anhydrous dimethylsulfoxide (DMSO). […] Test compounds were then serially diluted 1:3 in DMSO for a 10-point concentration response and further diluted in the assay buffer bringing all compound concentrations to 4× final concentration in 10% DMSO. […] A 10 μL aliquot of compound from each well of the intermediate dilution plate and 10 μL of a 4× stock solution containing ATP (5 μM) and acceptor substrate (20 μM RSK2 peptide […]) were added to all wells. […] Reactions were thoroughly mixed manually, covered and allowed to incubate at room temperature for 180 min. Protein kinase activity was quantitated using Promega's Kinase-Glo™ luminescent Kinase Assay Kit according to the manufacturer's directions. ATP concentrations remaining in Test wells following the termination of the enzymatic reaction were compared against control wells containing equivalent amounts of DMSO containing no inhibitor (CTRL). […] Percent of Control (POC) values were determined for each concentration of compound tested according to the equation: POC=((Test well value−BKG)/(CTRL−BKG))*100
IC50 values were calculated using the following 4-parameter logistic curve-fitting algorithm: f(x)=(A+((B−A)/(1+((x/C)^D))))
IC50 values were converted to Ki values using the Cheng-Prusoff Equation: Ki=IC50/(1+([ATP]/Km ATP])).

[1] = system: Immortalized Human Trabecular Meshwork cells (TM-1); assay: PTM-HTM Assay: human trabecular meshwork cells, focal adhesions; type: cell-based; details: TM1, TM-1 cells, anti-paxillin stain, total area of focal adhesions, percent of control
Description: (§1) Porcine Trabecular Meshwork cells (PTM) were isolated from freshly obtained enucleated porcine eyes following a procedure by Rao et al.^1 Immortalized Human Trabecular Meshwork cells (TM-1) were obtained through a kind gift from Donna Peters in the Department of Ophthalmology and Visual Sciences at the University of Wisconsin. Cells were plated onto fibronectin coated glass-bottom 96-well plates and allowed to attach overnight. Media was removed and replaced with test compound in media with 1% fetal bovine serum and incubated for various times. After incubation, cells were formaldehyde fixed, triton solubilized, and stained. PTM cells were stained with Alexa Fluor®488 phalloidin (F-actin) and Hoechst 33342 (nuclei). TM-1 cells were stained with anti-paxillin followed by Alexa Fluor®488 goat-anti-mouse IgG (focal adhesions) and Hoechst 33342 (nuclei). All staining reagents were obtained through Invitrogen. Images were collected on an INCell 2200 imager with a 20× objective. The actin fiber length and total area of focal adhesions were analyzed using custom algorithms developed in the INCell Developer Toolbox, v1.9.3. Data collected were converted to percent of control (untreated cells). Curves were fit to data in GraphPad Prizm4 using sigmoidal dose-response and constraining top and bottom to 100% and 0%, respectively.

[2] = system: Porcine Trabecular Meshwork cells (PTM); assay: PTM-HTM Assay: porcine trabecular meshwork cells, actin fibers; type: cell-based; details: Sus scrofa, phalloidin stain, actin fiber length, percent of control
Description: as §1

[3] = IC50 converted to Ki by Cheng-Prusoff, ATP 5 μM, ROCK2 1 nM, 180 min, read-out: ROCK2 Ki

Sequence of ROCK2 (O75116 whole entry, species assumed): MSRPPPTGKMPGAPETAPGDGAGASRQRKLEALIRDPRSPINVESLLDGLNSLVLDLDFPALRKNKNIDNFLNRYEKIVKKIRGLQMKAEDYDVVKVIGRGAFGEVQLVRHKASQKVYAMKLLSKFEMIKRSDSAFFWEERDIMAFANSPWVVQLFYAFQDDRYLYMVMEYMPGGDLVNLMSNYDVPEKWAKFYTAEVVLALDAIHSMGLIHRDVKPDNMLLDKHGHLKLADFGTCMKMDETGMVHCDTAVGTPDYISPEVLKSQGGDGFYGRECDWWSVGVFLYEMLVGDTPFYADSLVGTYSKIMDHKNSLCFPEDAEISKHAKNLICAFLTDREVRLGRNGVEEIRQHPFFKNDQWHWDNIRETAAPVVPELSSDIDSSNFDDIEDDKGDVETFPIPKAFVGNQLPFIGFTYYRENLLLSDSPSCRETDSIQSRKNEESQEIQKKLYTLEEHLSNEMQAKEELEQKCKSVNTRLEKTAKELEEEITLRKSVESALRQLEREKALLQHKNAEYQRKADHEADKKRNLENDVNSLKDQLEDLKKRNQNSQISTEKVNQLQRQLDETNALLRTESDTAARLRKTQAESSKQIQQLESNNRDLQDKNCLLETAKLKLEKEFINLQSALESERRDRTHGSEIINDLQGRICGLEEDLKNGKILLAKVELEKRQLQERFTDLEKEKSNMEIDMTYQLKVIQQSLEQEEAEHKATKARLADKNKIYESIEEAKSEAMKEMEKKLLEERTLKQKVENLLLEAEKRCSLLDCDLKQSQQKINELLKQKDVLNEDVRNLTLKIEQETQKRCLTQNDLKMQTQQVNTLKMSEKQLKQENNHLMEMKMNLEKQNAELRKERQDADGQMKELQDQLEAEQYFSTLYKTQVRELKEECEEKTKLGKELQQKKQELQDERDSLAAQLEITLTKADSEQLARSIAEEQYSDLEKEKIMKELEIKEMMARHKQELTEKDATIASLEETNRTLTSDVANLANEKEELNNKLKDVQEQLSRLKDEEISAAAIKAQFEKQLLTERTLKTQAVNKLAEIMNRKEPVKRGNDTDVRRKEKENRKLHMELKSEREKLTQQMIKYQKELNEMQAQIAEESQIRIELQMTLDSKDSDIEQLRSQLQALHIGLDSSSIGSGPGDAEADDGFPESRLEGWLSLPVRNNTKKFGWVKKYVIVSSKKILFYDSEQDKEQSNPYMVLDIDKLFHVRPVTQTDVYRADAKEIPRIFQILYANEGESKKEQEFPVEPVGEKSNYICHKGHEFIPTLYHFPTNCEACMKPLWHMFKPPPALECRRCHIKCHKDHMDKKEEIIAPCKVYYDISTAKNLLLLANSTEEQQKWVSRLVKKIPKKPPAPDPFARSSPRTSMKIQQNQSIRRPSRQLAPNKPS

| SMILES | Ki (ROCK2; [3]) [nM] | IC50 [1] [nM] | IC50 [2] [nM] | Ki (ROCK2) [nM] |
| --- | --- | --- | --- | --- |
| NCC(C(=O)Nc1ccc2cnccc2c1)c1cccc(CO)c1 (centres unmarked) [Compound 23] | 3 | 248 | 1380 |  |
| NCC(C(=O)Nc1ccc2cnccc2c1)c1ccc(Cl)cc1Cl (centres unmarked) [Compound 12] | 0.8 | 208 | 214 |  |
| COc1ccc(C(CN)C(=O)Nc2ccc3cnccc3c2)cc1 (centres unmarked) [Compound 20] | 1.3 | 111 | 670 |  |
| NCC(C(=O)Nc1ccc2cnccc2c1)c1ccc(O)cc1 (centres unmarked) [Compound 17] | 0.6 | 193 | 1020 |  |
| NC[C@H](C(=O)Nc1ccc2cnccc2c1)c1ccccc1 [4 (R)] | 16 |  |  |  |
| NCC(C(=O)Nc1ccc2cnccc2c1)c1ccc(F)cc1 (centres unmarked) [Compound 8] | 1 | 102 | 175 |  |
| NCC(C(=O)Nc1ccc2cnccc2c1)c1cccc(C(F)(F)F)c1 (centres unmarked) [Compound 21] | 2.7 | 475 | 596 |  |
| NCC(C(=O)Nc1ccc2cnccc2c1)c1ccc(C(F)(F)F)cc1 (centres unmarked) [Compound 22] | 1.8 | 493 | 152 |  |
| NCC(C(=O)Nc1ccc2cnccc2c1)c1ccc(O)c(O)c1 (centres unmarked) [Compound 18] | 5.5 | 11000 | 5150 |  |
| NCC(C(=O)Nc1ccc2cnccc2c1)c1cccc(O)c1 (centres unmarked) [Compound 16] | 1.3 | 1720 | 459 |  |
| NCC(C(=O)Nc1ccc2cnccc2c1)c1ccc(CO)cc1 (centres unmarked) [Compound 24] |  |  |  | 0.7 |
| NCC(C(=O)Nc1ccc2cnccc2c1)c1cccc(Cl)c1 (centres unmarked) [Compound 10] | 0.9 | 383 | 455 |  |
| Cc1ccccc1C(CN)C(=O)Nc1ccc2cnccc2c1 (centres unmarked) [Compound 13] | 1 | 90 | 200 |  |
| NCC(C(=O)Nc1ccc2cnccc2c1)c1ccc(Cl)cc1 (centres unmarked) [Compound 11] | 0.4 | 64 | 129 |  |
| NC[C@@H](C(=O)Nc1ccc2cnccc2c1)c1ccccc1 [3 (S)] | 0.4 | 41 |  |  |
| Cc1ccc(C(CN)C(=O)Nc2ccc3cnccc3c2)cc1 (centres unmarked) [Compound 15] | 0.4 | 39 | 84 |  |
| NCC(C(=O)Nc1ccc2cnccc2c1)c1ccccc1Cl (centres unmarked) [Compound 9] | 1.3 | 192 | 245 |  |
| NCC(C(=O)Nc1ccc2c(O)nccc2c1)c1ccccc1 (centres unmarked) [Compound 5] | 2.2 | 266 | 45 |  |
| Cc1cccc(C(CN)C(=O)Nc2ccc3cnccc3c2)c1 (centres unmarked) [Compound 14] | 3.3 | 324 | 511 |  |
| NCC(C(=O)Nc1ccc2cnccc2c1)c1ccccc1F (centres unmarked) [Compound 6] | 1 | 139 | 260 |  |
| NCC(C(=O)Nc1ccc2cnccc2c1)c1cccc(F)c1 (centres unmarked) [Compound 7] | 1 | 201 | 298 |  |
| COc1cccc(C(CN)C(=O)Nc2ccc3cnccc3c2)c1 (centres unmarked) [Compound 19] | 2 | 214 | 448 |  |
| NCC(C(=O)Nc1ccc2cnccc2c1)c1ccccc1 (centres unmarked) [Compound 2] | 0.8 |  |  |  |
